Laboratory results as given in ChEMBL document CHEMBL5113387, “An insight into the multifunctional role of ghrelin and structure activity relationship studies of ghrelin receptor ligands with clinical trials” (Eur J Med Chem, 2022).
Peptide text beside a SMILES is read from it.

Tests used:
[1] = Stimulation of growth hormone secretion in rat pituitary cells; type: functional, cell-based; details: Pituitary gland cell
[2] = molecular target: T1, Growth hormone secretagogue receptor type 1 (Homo sapiens, UniProt Q92847); test: Binding affinity to GHS-R1a (unknown origin); details: filed as agonist
[3] = Oral bioavailability in human; type: ADME, organism-based; details: in vivo
[4] = molecular target: T1, Growth hormone secretagogue receptor type 1; test: Binding affinity to GHS-R1a (unknown origin) assessed as inhibition constant
[5] = Stimulation of growth hormone secretion in Wistar rat pituitary cells measured after 15 mins; type: functional, cell-based; details: Pituitary gland cell, 0.25 h

T1 sequence (Q92847 whole entry): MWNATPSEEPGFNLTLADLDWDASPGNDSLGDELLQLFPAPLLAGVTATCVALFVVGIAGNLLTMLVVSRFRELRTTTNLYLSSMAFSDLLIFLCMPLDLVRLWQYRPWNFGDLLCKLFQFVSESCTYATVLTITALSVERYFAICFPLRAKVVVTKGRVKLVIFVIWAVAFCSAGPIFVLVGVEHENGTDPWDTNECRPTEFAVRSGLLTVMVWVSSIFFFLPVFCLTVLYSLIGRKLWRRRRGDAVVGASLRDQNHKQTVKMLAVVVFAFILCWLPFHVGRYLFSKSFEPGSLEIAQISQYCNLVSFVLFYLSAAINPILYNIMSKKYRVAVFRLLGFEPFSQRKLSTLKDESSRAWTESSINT

Row | Structure (SMILES) | EC50 [1] | other results
1 | CC(C)(N)CC(=O)N[C@@H]1CCc2ccccc2N(Cc2ccc(-c3ccccc3-c3nn[nH]n3)cc2)C1=O | 60 nM | –
2 | CC(C)(N)C(=O)N[C@H](COCc1ccccc1)C(=O)N1CCC2(CC1)CN(S(C)(=O)=O)c1ccccc12 [IBUTAMOREN] | 1.3 nM | Activity [2]: 0.3 nM
3 | Cc1[nH]c2ccccc2c1C[C@@H](NC(=O)[C@@H](N)Cc1cnc[nH]1)C(=O)N[C@@H](C)C(=O)N[C@@H](Cc1c[nH]c2ccccc12)C(=O)N[C@H](Cc1ccccc1)C(=O)N[C@@H](CCCCN)C(N)=O [EXAMORELIN] (HELM PEPTIDE1{H.[Cc1[nH]c2ccccc2c1C[C@@H](N[*:1])C(=O)[*:2]].A.W.[dF].K.[am]}$$$$V2.0) | – | bioavailability [3]: < 1%
4 | CN1CCC(S(=O)(=O)N[C@@H](COCc2ccccc2)C(=O)N2CCC3(CC2)CN(S(C)(=O)=O)c2ccccc23)CC1 | – | Ki [4]: < 100 nM
5 | C[C@H](O)CNC(C)(C)CC(=O)N[C@@H]1CCc2ccccc2N(Cc2ccc(-c3ccccc3-c3nn[nH]n3)cc2)C1=O | 3 nM | –
6 | C[C@H](NC(=O)[C@H](Cc1c[nH]c2ccccc12)NC(=O)[C@@H](N)Cc1c[nH]cn1)C(=O)N[C@@H](Cc1c[nH]c2ccccc12)C(=O)N[C@@H](Cc1ccccc1)C(=O)N[C@@H](CCCCN)C(N)=O (H-HWAWFK-NH2) | 10 nM | –
7 | CN1N=C2CCN(C(=O)[C@@H](COCc3ccccc3)NC(=O)C(C)(C)N)C[C@@]2(Cc2ccccc2)C1=O [CAPROMORELIN] | – | EC50 [5]: 3 nM
